Source: patent US20070281992A1, “COMBINATION OF GYRASE B INHIBITORS AND PROTEIN SYNTHESIS INHIBITORS AND USES THEREOF” (priority 2006, published 2007)
Read-outs that look alike come from different tables or passages of the source.

Key:
[1] = test system: Methicillin-Resistant Staphylococcus aureus Isolates; test: MIC assay (NCCLS broth dilution), MRSA clinical isolates; type: cell-based; details: Staphylococcus aureus; for MIC: read-out: Minimal Inhibitory Concentration
Description: (§1) Antibiotics: novobiocin, tetracycline, minocycline, oxacillin, and vancomycin were all purchased from Sigma-Aldrich. Linezolid was obtained from Pfizer, Inc. Novobiocin/tetracycline and novobiocin/minocycline were tested in a 2.5:1 ratio to mimic the serum levels. (Vavra, J. J., 1967, Development of resistance to novobiocin, tetracycline, and novobiocin-tetracycline combinations in Staphylococcus aureus populations, J. Bacteriol 93(3):801). Compounds were tested across a concentration range consisting of 11 two-fold serial dilutions of test agent.
(§2) Stock solutions were prepared in sterile deionized water; novobiocin stock concentration was 1600 μg/mL and all other drugs stock solutions were prepared at 640 μg/mL. The stock solutions were allowed to sit at room temperature for one hour to auto-sterilize prior to use in the test. All compounds were in solution in water. The control agent was vancomycin hydrochloride, Sigma Chemical Lot # 015K0825.
(§3) The test organisms for the assay were 52 MSSA, 52 MRSA, 8 VISA, 7 VISE, and 3 LRSA isolates. Quality control strains included Staphylococcus aureus 0100 (ATCC 29213) and Enterococcus faecalis (ATCC 29212).
(§4) The MIC assay was performed according to published NCCLS guidelines. (National Committee for Clinical Laboratory Standards, Methods for Dilution Antimicrobial Susceptibility Tests for Bacteria that Grow Aerobically; Approved Standard-Sixth Edition, NCCLS Document M7-A6 [ISBN 1-56238-486-4], NCCLS, 940 West Valley Road, Suite 1400, Wayne, Pa. 19087-1898 USA, 2003). The test medium was Mueller Hinton II Broth for all organisms.

[2] = test system: Staphylococcus aureus 0100 (ATCC 29213); test: MIC assay, quality control strain S. aureus ATCC 29213; type: cell-based; details: ATCC29213, S. aureus ATCC 29213, repeat runs 22FEB06-09MAR06, combinations at 2.5:1, read-out: Minimal Inhibitory Concentration, quality control
Description: as §1, §2, §3, §4

[3] = 52 MRSA isolates, combinations at 2.5:1, given as NB/partner

CN(C)[C@@H]1C(O)=C(C(N)=O)C(=O)[C@@]2(O)C(O)=C3C(=O)c4c(O)cccc4[C@@](C)(O)[C@H]3C[C@@H]12 [TE, tetracycline]
16 µg/mL: MIC ([1]; MRSA isolate 1004, 24FEB06) | MIC90 [1, 3]
0.5 µg/mL: MIC ([1]; MRSA isolate 758, 24FEB06) | MIC ([1]; MRSA isolate 760, 24FEB06) | MIC ([1]; MRSA isolate 763, 22FEB06) | MIC ([1]; MRSA isolate 765, 22FEB06) | MIC ([1]; MRSA isolate 767, 22FEB06) | MIC ([1]; MRSA isolate 768, 22FEB06) | MIC ([1]; MRSA isolate 770, 22FEB06) | MIC ([1]; MRSA isolate 771, 22FEB06) | MIC ([1]; MRSA isolate 772, 22FEB06) | MIC ([1]; MRSA isolate 773, 24FEB06) | MIC ([1]; MRSA isolate 774, 24FEB06) | MIC ([1]; MRSA isolate 775, 24FEB06) | MIC ([1]; MRSA isolate 776, 24FEB06) | MIC ([1]; MRSA isolate 777, 24FEB06) | MIC ([1]; MRSA isolate 886, 24FEB06) | MIC ([1]; MRSA isolate 887, 24FEB06) | MIC ([1]; MRSA isolate 888, 24FEB06) | MIC ([1]; MRSA isolate 1013, 22FEB06) | MIC ([1]; MRSA isolate 1014, 22FEB06) | MIC ([1]; MRSA isolate 1015, 22FEB06) | MIC ([1]; MRSA isolate 1016, 22FEB06) | MIC ([1]; MRSA isolate 1017, 22FEB06) | MIC ([1]; MRSA isolate 1021, 22FEB06) | MIC ([1]; MRSA isolate 1022, 22FEB06) | MIC ([1]; MRSA isolate 1023, 22FEB06) | MIC ([1]; MRSA isolate 1024, 22FEB06) | MIC ([1]; MRSA isolate 1025, 22FEB06) | MIC ([1]; MRSA isolate 1135, 22FEB06) | MIC ([1]; MRSA isolate 1136, 22FEB06) | MIC ([1]; MRSA isolate 1137, 22FEB06) | MIC ([1]; MRSA isolate 1222, 03MAR06) | MIC ([1]; MRSA isolate 1222, 24FEB06) | MIC ([1]; MRSA isolate 1658, 03MAR06) | MIC ([1]; MRSA isolate 1661, 03MAR06) | MIC ([1]; MRSA isolate 1730, 24FEB06) | MIC ([1]; MRSA isolate 2010, 24FEB06) | MIC50 [1, 3] | MIC [2]
4 µg/mL: MIC ([1]; MRSA isolate 1010, 22FEB06)
0.25 µg/mL: MIC ([1]; MRSA isolate 778, 24FEB06) | MIC ([1]; MRSA isolate 1653, 03MAR06) | MIC ([1]; MRSA isolate 1659, 03MAR06)
1 µg/mL: MIC ([1]; MRSA isolate 758, 03MAR06) | MIC ([1]; MRSA isolate 760, 03MAR06) | MIC ([1]; MRSA isolate 766, 22FEB06) | MIC ([1]; MRSA isolate 889, 24FEB06) | MIC ([1]; MRSA isolate 1012, 22FEB06) | MIC ([1]; MRSA isolate 1138, 22FEB06)
> 16 µg/mL: MIC ([1]; MRSA isolate 757, 24FEB06) | MIC ([1]; MRSA isolate 769, 22FEB06) | MIC ([1]; MRSA isolate 1729, 03MAR06) | MIC ([1]; MRSA isolate 2009, 24FEB06) | MIC ([1]; MRSA isolate 2011, 24FEB06)
